US20250163047A1, “HETEROCYCLIC COMPOUNDS, COMPOSITIONS THEREOF, AND METHODS OF TREATMENT THEREWITH” (BeiGene, Ltd., priority 2022, published 2025)

Assays:
Cbl-b (aa36-427) = biological target: T1, Cbl-b (aa36-427) (Homo sapiens, UniProt Q13191); experiment: Co-expressed Cbl-b with BirA biochemical assay (CBLB/E2-Ub binding, HTRF); conditions: 0.6 nM Cbl-b co-expressed with BirA, HTRF; read-out: co-express CBLB/E2-Ub-binding assay IC50
T1 construct: Cbl-b (aa36-427, in-house); made in house
Source text: (§1) The assay in the absence of a Cbl-b/Cbl inhibitor, where phosphorylation of Cbl-b/Cbl by the Src kinase allows UbcH5B-Ub to bind to Cbl-b/Cbl and brings the Bodipy-Fluorescein tagged ubiquitin in proximity to the streptavidin-terbium bound to the N-terminal biotinylated Avi-tagged Cbl-b/Cbl. […] The lack of a FRET signal indicates Cbl-b/Cbl is inhibited by the Cbl-b/Cbl inhibitor.

Cbl (aa49-434) = biological target: T2, Cbl (aa49-434) (Homo sapiens, UniProt P22681); experiment: Co-expressed Cbl with BirA biochemical assay (CBL/E2-Ub binding, HTRF); conditions: 0.6 nM Cbl co-expressed with BirA, read-out: co-express CBL/E2-Ub-binding assay IC50
T2 construct: Cbl (aa49-434, in-house); made in house
T2 sequence (P22681 49-434): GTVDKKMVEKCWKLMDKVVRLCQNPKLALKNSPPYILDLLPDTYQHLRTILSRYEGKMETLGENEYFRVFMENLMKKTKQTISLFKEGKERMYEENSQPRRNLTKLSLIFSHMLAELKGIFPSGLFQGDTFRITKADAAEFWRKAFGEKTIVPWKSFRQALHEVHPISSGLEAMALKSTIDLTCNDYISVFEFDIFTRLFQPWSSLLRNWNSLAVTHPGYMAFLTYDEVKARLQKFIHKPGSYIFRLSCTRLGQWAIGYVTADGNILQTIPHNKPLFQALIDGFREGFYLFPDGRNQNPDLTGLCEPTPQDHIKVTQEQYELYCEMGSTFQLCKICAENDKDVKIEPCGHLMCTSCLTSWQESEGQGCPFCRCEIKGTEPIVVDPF
Source text: as §1

T1 sequence (Q13191 36-427): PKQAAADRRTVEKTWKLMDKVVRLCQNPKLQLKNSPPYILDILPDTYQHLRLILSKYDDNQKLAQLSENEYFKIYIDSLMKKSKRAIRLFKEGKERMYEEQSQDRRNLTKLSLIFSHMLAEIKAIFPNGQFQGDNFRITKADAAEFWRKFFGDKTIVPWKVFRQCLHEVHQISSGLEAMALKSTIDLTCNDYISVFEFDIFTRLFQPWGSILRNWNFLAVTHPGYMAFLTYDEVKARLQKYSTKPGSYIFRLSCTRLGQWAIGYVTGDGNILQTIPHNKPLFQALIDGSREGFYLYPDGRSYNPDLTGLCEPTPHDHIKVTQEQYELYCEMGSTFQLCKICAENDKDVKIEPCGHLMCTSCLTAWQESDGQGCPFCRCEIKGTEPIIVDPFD

IC50 (Cbl-b (aa36-427))	IC50 (Cbl (aa49-434))	Compound
2.7 nM	6.3 nM	Cn1cnnc1C[C@]1(c2cccc(NC(=O)c3cc(CNC4CCCCC4)c4c(n3)C(C)(C)CO4)c2)C[C@H](C#N)C1 [Compound C48, N-(3-((1r, 3r)-3-cyano-1-((4-methyl-4H-1,2,4-triazol-3-yl)methyl)cyclobutyl)phenyl)-7-((cyclohexylamino)methyl)-3,3-dimethyl-2,3-dihydrofuro[3,2-b]pyridine-5-carboxamide]
1.4 nM	6.1 nM	Cn1cnnc1[C@]1(c2cccc(NC(=O)c3cc(CNCC4(C)CCCC4)c4c(n3)C(C)(C)CN4)c2)C[C@H](CC#N)C1 [Compound C22, 3,3-dimethyl-7-({[(1-methylcyclopentyl)methyl]amino}methyl)-N-{3-[(1s, 3s)-3-(cyanomethyl)-1-(4-methyl-1,2,4-triazol-3-yl)cyclobutyl]phenyl}-1H,2H-pyrrolo[3,2-b]pyridine-5-carboxamide]
3.9 nM	17 nM	Cn1cnnc1[C@]1(c2cccc(NC(=O)c3cc(CNC4(C)CCC4)c4c(n3)C3(CC3)CN4)c2)C[C@H](CC#N)C1 [Compound C31, N-(3-((1s, 3s)-3-(cyanomethyl)-1-(4-methyl-4H-1,2,4-triazol-3-yl)cyclobutyl)phenyl)-7′-(((1-methylcyclobutyl)amino)methyl)-1′,2′-dihydrospiro[cyclopropane-1,3′-pyrrolo[3,2-b]pyridine]-5′-carboxamide]
1.5 nM	1.1 nM	C[C@H](NCc1cc(C(=O)Nc2cccc([C@]3(Cc4nncn4C)C[C@@H](C#N)C3)c2)c2nccn2c1)C1CCCC1 [Compound A33, N-(3-((1r,3S)-3-cyano-1-((4-methyl-4H-1,2,4-triazol-3-yl)methyl)cyclobutyl)phenyl)-6-((((S)-1-cyclopentylethyl)amino)methyl)imidazo[1,2-a]pyridine-8-carboxamide]
0.89 nM	3.2 nM	CC(C)CNCc1cc(C(=O)Nc2cncc([C@]3(c4nncn4C)C[C@@H](C)C3)c2)nc2c(F)c[nH]c12 [Compound B48, 3-fluoro-7-((isobutylamino)methyl)-N-(5-((1s, 3s)-3-methyl-1-(4-methyl-4H-1,2,4-triazol-3-yl)cyclobutyl)pyridin-3-yl)-1H-pyrrolo[3,2-b]pyridine-5-carboxamide]
1.4 nM	8.8 nM	Cc1c[nH]c2c(CNC3(C)CC3)cc(C(=O)Nc3cccc([C@]4(c5nncn5C)C[C@@H](CC#N)C4)c3)nc12 [Compound B30, N-(3-((1s, 3s)-3-(cyanomethyl)-1-(4-methyl-4H-1,2,4-triazol-3-yl)cyclobutyl)phenyl)-3-methyl-7-(((1-methylcyclopropyl)amino)methyl)-1H-pyrrolo[3,2-b]pyridine-5-carboxamide]
0.8 nM	3.3 nM	C[C@H](NCc1cc(C(=O)Nc2cccc([C@]3(c4nncn4C)C[C@@H](CC#N)C3)c2)nc2c1OCC2(C)C)C1CCC1 [Compound C28, 7-({[(1S)-1-cyclobutylethyl]amino}methyl)-3,3-dimethyl-N-{3-[(1s, 3s)-3-(cyanomethyl)-1-(4-methyl-1,2,4-triazol-3-yl)cyclobutyl]phenyl}-2H-furo[3,2-b]pyridine-5-carboxamide]
1.2 nM	1.1 nM	C[C@H](NCc1cc(C(=O)Nc2cccc([C@]3(c4nncn4C)C[C@@H](CC#N)C3)c2)nc2cc[nH]c12)C1CCCC1 [Compound B25, N-(3-((1s,3R)-3-(cyanomethyl)-1-(4-methyl-4H-1,2,4-triazol-3-yl)cyclobutyl)phenyl)-7-((((S)-1-cyclopentylethyl)amino)methyl)-1H-pyrrolo[3,2-b]pyridine-5-carboxamide]
7.2 nM	19.8 nM	C[C@H]1CCCN(Cc2cc(C(=O)Nc3cccc([C@]4(c5nncn5C)C[C@@H](C)C4)c3)c3ncc(F)n3c2)C1 [Compound A6, 3-fluoro-6-{[(3S)-3-methylpiperidin-1-yl]methyl}-N-{3-[(1r, 3s)-3-methyl-1-(4-methyl-1,2,4-triazol-3-yl)cyclobutyl]phenyl}imidazo[1,2-a]pyridine-8-carboxamide]
0.7 nM	2.7 nM	Cn1cnnc1[C@]1(c2cncc(NC(=O)c3cc(CNCC4CCC4)c4[nH]cc(F)c4n3)c2)C[C@H](C)C1 [Compound B46, 7-{[(cyclobutylmethyl)amino]methyl}-3-fluoro-N-{5-[(1r, 3s)-3-methyl-1-(4-methyl-1,2,4-triazol-3-yl)cyclobutyl]pyridin-3-yl}-1H-pyrrolo[3,2-b]pyridine-5-carboxamide]
1.8 nM	7.6 nM	Cn1cnnc1[C@]1(c2cccc(NC(=O)c3cc(CNCC4CCCC4)cn4ccnc34)c2)C[C@H](C)C1 [Compound A42, 6-(((cyclopentylmethyl)amino)methyl)-N-(3-((1s, 3s)-3-methyl-1-(4-methyl-4H-1,2,4-triazol-3-yl)cyclobutyl)phenyl)imidazo[1,2-a]pyridine-8-carboxamide]
3 nM	11.9 nM	CC[C@H](C)NCc1cc(C(=O)Nc2cncc([C@]3(c4nncn4C)C[C@@H](C)C3)c2)c2nccn2c1 [Compound A49, 6-((((S)-sec-butyl)amino)methyl)-N-(5-((1s,3R)-3-methyl-1-(4-methyl-4H-1,2,4-triazol-3-yl)cyclobutyl)pyridin-3-yl)imidazo[1,2-a]pyridine-8-carboxamide]
2 nM	13 nM	Cc1cnc2c(C(=O)Nc3cncc([C@]4(c5nncn5C)C[C@@H](C)C4)c3)cc(CNC3(C)CCC3)cn12 [Compound A80, 3-methyl-N-(5-((1s, 3s)-3-methyl-1-(4-methyl-4H-1,2,4-triazol-3-yl)cyclobutyl)pyridin-3-yl)-6-(((1-methylcyclobutyl)amino)methyl)imidazo[1,2-a]pyridine-8-carboxamide]
0.2 nM	0.9 nM	Cn1cnnc1[C@]1(c2cccc(NC(=O)c3cc(CNC4(C)CC4)cn4c(Cl)cnc34)c2)C[C@H](CC#N)C1 [Compound A41, 3-chloro-N-(3-((1s, 3s)-3-(cyanomethyl)-1-(4-methyl-4H-1,2,4-triazol-3-yl)cyclobutyl)phenyl)-6-(((1-methylcyclopropyl)amino)methyl)imidazo[1,2-a]pyridine-8-carboxamide]
0.4 nM	0.6 nM	C[C@H](NCc1cc(C(=O)Nc2cncc([C@]3(c4nncn4C)C[C@@H](C)C3)c2)c2ncc(F)n2c1)C1CC1 [Compound A72, 6-({[(1S)-1-cyclopropylethyl]amino}methyl)-3-fluoro-N-{5-[(1r, 3s)-3-methyl-1-(4-methyl-1,2,4-triazol-3-yl)cyclobutyl]pyridin-3-yl}imidazo[1,2-a]pyridine-8-carboxamide]
1 nM	1.5 nM	Cn1cnnc1[C@]1(c2cccc(NC(=O)c3cc(CNCC4CCC4)c4[nH]ccc4n3)c2)C[C@H](C)C1 [Compound B32, 7-(((cyclobutylmethyl)amino)methyl)-N-(3-((1s, 3s)-3-methyl-1-(4-methyl-4H-1,2,4-triazol-3-yl)cyclobutyl)phenyl)-1H-pyrrolo[3,2-b]pyridine-5-carboxamide]
0.8 nM	8.8 nM	Cn1cnnc1[C@]1(c2cccc(NC(=O)c3cc(CNC4(C)CCC4)c4ccsc4n3)c2)C[C@H](CC#N)C1 [Compound B39, 4-{[(1-methylcyclobutyl)amino]methyl}-N-{3-[(1s, 3s)-3-(cyanomethyl)-1-(4-methyl-1,2,4-triazol-3-yl)cyclobutyl]phenyl}thieno[2,3-b]pyridine-6-carboxamide]
1.3 nM	14.2 nM	C[C@H]1CCCN(Cc2cc(C(=O)Nc3cccc([C@]4(c5nncn5C)C[C@@H](CC#N)C4)c3)nc3c(F)c[nH]c23)C1 [Compound B11, N-(3-((1s,3R)-3-(cyanomethyl)-1-(4-methyl-4H-1,2,4-triazol-3-yl)cyclobutyl)phenyl)-3-fluoro-7-(((S)-3-methylpiperidin-1-yl)methyl)-1H-pyrrolo[3,2-b]pyridine-5-carboxamide]
1.4 nM	2.4 nM	C[C@H](NCc1cc(C(=O)Nc2cccc([C@]3(c4nncn4C)C[C@@H](CC#N)C3)c2)c2nccn2c1)C1CCC1 [Compound A38, N-(3-((1s,3R)-3-(cyanomethyl)-1-(4-methyl-4H-1,2,4-triazol-3-yl)cyclobutyl)phenyl)-6-((((S)-1-cyclobutylethyl)amino)methyl)imidazo[1,2-a]pyridine-8-carboxamide]
0.6 nM	4.1 nM	Cn1cnnc1[C@]1(c2cccc(NC(=O)c3cc(CNC4(C)CC4)cc4ccnn34)c2)C[C@H](C)C1 [Compound A91, N-(3-((1s, 3s)-3-methyl-1-(4-methyl-4H-1,2,4-triazol-3-yl)cyclobutyl)phenyl)-5-(((1-methylcyclopropyl)amino)methyl)pyrazolo[1,5-a]pyridine-7-carboxamide]
